Data from patent publication US9290529B2, “Carbonic anhydrase inhibitors and method of their production” (USTAV ORGANICKE CHEMIE A BIOCHEMIE AKADEMIE VED CESKE …, priority 2011, dated 2016).

Tests used:
CCRF-CEM = experiment: MTT cytotoxicity assay, CCRF-CEM; type: cell-based, human; conditions: 72 h
Text: (§1) One of the parameters used as the basis for colorimetric assays is the metabolic activity of viable cells. For example, a microtiter assay which uses the tetrazolium salt MTT is now widely used to quantitate cell proliferation and cytotoxicity (Hájduch et al., Cytotechnology, 19, 1996, 243-245). For instance, this assay is used in drug screening programs and in chemosensitivity testing. Because tetrazolium salts are cleaved only by metabolically active cells, these assays exclusively detect viable cells. In the case of the MTT assay, yellow soluble tetrazolium salt is reduced to a coloured water-insoluble formazan salt. After it is solubilized, the formazan formed can easily and rapidly be quantified in a conventional ELISA plate reader at 570 nm (maximum absorbancy). The quantity of reduced formazan corresponds to the number of vital cells in the culture.
(§2) All cells were purchased from the […] (ATCC), unless otherwise indicated: the CEM line are highly chemosensitive T-lymphoblastic leukemia cells, K562 cells were derived from patient with […] with bcr-abl translocation, A549 line is lung adenocarcinoma, HCT116 is colorectal tumor cell line and its p53 gene knock-down counterpart (HCT116p53−) is a model of human cancers with p53 mutation frequently associated with poor prognosis. The daunorubicin resistant subline of CEM cells (CEM-DNR bulk) and paclitaxel resistant subline K562-tax were selected in our laboratory by the cultivation of maternal cell lines in increasing concentrations of daunorubicine or paclitaxel, respectively (Noskova et al., Neoplasma 49, 2002, 418). The CEM-DNR bulk cells overexpress MRP-1 protein, while K562-tax cells overexpress P-glycoprotein, both proteins belong to family of ABC transporters and are involved in primary and/or acquired multidrug resistance phenomenon (Noskova et al., Neoplasma 49, 2002, 418). The cells were maintained in Nunc/Corning 80 cm^2 plastic tissue culture flasks and cultured in cell culture medium (DMEM/RPMI 1640 with 5 g/l glucose, 2 mM glutamine, 100 U/ml penicillin, 100 μg/ml streptomycin, 10% fetal calf serum, and NaHCO3).
(§3) This assay was performed according to Hajduch et al., Anti-Cancer Drugs 10, 1997, 1007. Cell suspensions were prepared and diluted according to the particular cell type and the expected target cell density (2 500-30 000 cells/well based on cell growth characteristics). Cells were added by pipette (80 μl) into 96-well microtiter plates. Inoculates were allowed a pre-incubation period of 24 h at 37° C. and 5% CO2 for stabilization. Four-fold dilutions, in 20-μl aliquots, of the intended test concentration were added to the microtiter plate wells at time zero. All test compound concentrations were examined in duplicate. Incubation of the cells with the test compounds lasted for 72 h at 37° C., in a 5% CO2 atmosphere at 100% humidity. At the end of the incubation period, the cells were assayed using MTT. Aliquots (10 μl) of the MTT stock solution were pipetted into each well and incubated for a further 1-4 h. After this incubation period the formazan produced was dissolved by the addition of 100 μl/well of 10% aq SDS (pH=5.5), followed by a further incubation at 37° C. overnight. The optical density (OD) was measured at 540 nm with a Labsystem iEMS Reader MF. Tumor cell survival (TCS) was calculated using the following equation: TCS=(ODdrug-exposed well/mean ODcontrol wells)×100%. The TCS50 value, the drug concentration lethal to 50% of the tumor cells, was calculated from appropriate dose-response curves.

CEM-DNR = experiment: MTT cytotoxicity assay, CEM-DNR; type: cell-based, human; conditions: 72 h
Text: as §1, §2, §3

A549 = experiment: MTT cytotoxicity assay, A549; type: cell-based, human; conditions: 72 h
Text: as §1, §2, §3

K562-TAX = experiment: MTT cytotoxicity assay, K562-TAX; type: cell-based, human; conditions: 72 h
Text: as §1, §2, §3

HCT116 = experiment: MTT cytotoxicity assay, HCT116; type: cell-based, human; conditions: 72 h
Text: as §1, §2, §3

HCT116p53−/− = experiment: MTT cytotoxicity assay, HCT116p53−/−; type: cell-based, human; conditions: 72 h
Text: as §1, §2, §3

BJ = experiment: MTT cytotoxicity assay, BJ; type: cell-based; conditions: 72 h
Text: as §1, §3

MRC-5 = experiment: MTT cytotoxicity assay, MRC-5; type: cell-based; conditions: MRC-5, MTT, 72 h
Text: as §1, §3

CCRF-CEM cells = experiment: Flow cytometric measurement of intracellular pH (pHi), CA IX negative CCRF-CEM; type: cell-based, human; conditions: carboranes at 1 μM, 24 hour incubation, control 7.362
Description: The effect of carborane CAIX (carbonic anhydrase IX) inhibitors was evaluated on colorectal cancer cell line HCT116 expressing CAIX enzyme versus CA IX negative cell line of T-lymphoblastic leukemia CCRF-CEM. Acetazolamide, a known inhibitor of CAIX, was used as a standard. HCT116/CCRF-CEM cells were cultivated in McCoy/RPMI Media supplemented with 10% FCS and antibiotics and seeded at high density ([…] per 3.5 cm dish) to induce pericellular hypoxia and thus stimulate CA IX expression. Measurement of pHi was assessed as described in Cianchi et al. [Cianchi F., et al. Selective inhibition of carbonic anhydrase IX decreases cell proliferation and induces […] apoptosis in human cancer cells. The Journal of Pharmacology and Experimental Therapeutics, 2010, Vol. 334, No. 3, 710-719].
[…] The pHi was measured by flow cytometry in cell cultures pretreated with 10 μM of pH sensitive probe carboxyseminaphtorhoda-fluor-1-acetoxymethyl ester (SNARF, Invitrogen, CA) for 15 min at 37° C. After incubation, the cells were washed twice with PBS. Because the addition of bicarbonate can affect pHi, all incubation and cell washes were performed in bicarbonate-free buffer. SNARF was excited at 488 nm and emitted at 580 and 640 nm. The ratio of the emission wavelengths at 640/580 nm was then used to estimate the pHi from a calibration curve. The calibration curve was prepared by nigericin clamp technique. In this method, after the SNARF labeling of untreated cells, aliquots of cell suspensions were re-suspended in a high potassium containing buffer at specific pH (usually 6.8, 7.0, 7.2, 7.4, 7.6 and 7.8). The cell suspensions were then clamped at a specific pH value by the addition of 0.03 μM nigericin (Sigma-Aldrich). Nigericin is a ionophore that allows the exchange of H for K ions, thus abolishing the pH gradient across the cell membrane. When the internal and external K concentrations are approximately equal, the pH rapidly equilibrates to the pH of the bathing solution. A total of 20,000 events were acquired on a FACS ARIA II flow cytometer (Becton. Dickinson) for further analysis.
The fluorescent ratio values (640/580 nm) calculated for each pH point were further used to construct calibration curve in Prism software (GraphPad Software, Inc., San Diego, Calif.), from which the pHi values in treated cells were determined (Table 3).

| Substance | IC50 (CCRF-CEM) [µM] | IC50 (CEM-DNR) [µM] | IC50 (A549) [µM] | IC50 (K562-TAX) [µM] | IC50 (HCT116) [µM] | IC50 (HCT116p53−/−) [µM] | IC50 (BJ) [µM] | IC50 (MRC-5) [µM] | pHi (CCRF-CEM cells) |
| --- | --- | --- | --- | --- | --- | --- | --- | --- | --- |
| 1-methylenesulfamide-1,7-dicarba-closo-dodecaborane [CB-19] | 71.9 ± 3.7 | 100 ± 0.1 | ≥ 100 | 86.7 ± 12.7 | 89.3 ± 3.3 | 78.3 ± 6.5 | ≥ 100 | ≥ 100 | 7.319 |
| 1-methylenesulfamide-3,3′-commo-bis(1,2-dicarba-3-cobalta(III)-closo-dodecabor)ate (1-) [CB-5] | 85.4 ± 22.6 | – | ≥ 100 | 66.4 ± 8 | 75.3 ± 4.1 | 64.7 ± 9.1 | ≥ 100 | 93.2 ± 7 | 7.378 |
| 1-methylenesulfamide-9-phenyl-1,2-dicarba-closo-dodecaborane and 1-methylene-sulfamide-12-phenyl-1,2-dicarba-closo-dodecaborane [CB-8] | 73.4 ± 6.8 | 96.8 ± 3.3 | 96 ± 6.2 | 79.6 ± 10.9 | 97.4 ± 3.4 | 86.6 ± 7.5 | ≥ 100 | ≥ 100 | 7.427 |
| 1-methylensulfamide-1,2-dicarba-closo-dodekaborane [CB-1] | 61.8 ± 10.6 | 79 ± 8.9 | 94.9 ± 4.3 | 81.5 ± 11 | 63.9 ± 5.7 | 62 ± 2.7 | ≥ 100 | 22.1 ± 1.1 | 7.429 |
| 1-sulfamide-closo-1-carbadodecaborate (1-) [CB-3] | ≥ 100 | – | ≥ 100 | ≥ 100 | ≥ 100 | ≥ 100 | ≥ 100 | ≥ 100 | 7.362 |
| 7-methylensulfamide-8-phenyl-(7,8-nido-dikarbaundekabor)ate (1-) [CB-6] | 20.2 ± 1.7 | 98.1 ± 3 | 77.8 ± 10.8 | 56.9 ± 15.1 | 78.4 ± 17 | 24.2 ± 3.2 | ≥ 100 | – | 7.352 |
| 7-methylensulfamide-(7,8-nido-dicarbaundekaborate) (1-) [CB-2] | – | 96.7 ± 3.8 | ≥ 100 | 99.9 ± 0.2 | ≥ 100 | – | ≥ 100 | ≥ 100 | 7.308 |
